Consider 3 molecules from patent US20210401987A1, “METHODS AND COMPOSITIONS FOR TREATING INFLAMMATORY AND FIBROTIC PULMONARY DISORDERS” (University of Houston System, priority 2020, published 2021).

For test [1], the system named is human airway microvasculature endothelial cells. The test can be described thus: Endothelial cell activation assessed by expression of Vcam1 (CD106). The class given is cell-based. The settings on record: IL-13 challenge of human lung endothelial cells. The text has this: Given the robust inflammatory response triggered by xenografts of COPD clone libraries, the inventors asked if this inflammatory activity was a function of one or more of the constituent clone types. Using pathway enrichment analysis algorithms for the gene expression profiles of the four clone types, the multiple inflammatory pathways highlighted in clones of Cluster 4 was striking including Antigen Presentation, Interferon Signaling, Graft-vs-Host responses, and Dendritic Cell Maturation among others, and their relative absence from clones of Clusters 1, 2, and 3 (FIG. 5A; FIG. 12A). The inventors tested media conditioned by clones of Clusters 1-4 for their ability to trigger phase I and II activation of human airway microvasculature endothelial cells, an essential step in leukocyte recruitment (Filippi, 2016). […] In this same assay media conditioned by Cluster 2 (GCM) or Cluster 3 (SCM) clones, respectively, yielded 4- and 10-fold inductions of VCAM1, and while media from Cluster 4 (iSCM) clones induced Vcam1 by 60-fold (FIG. 12B).

In test [2] the test system is ERBB2. The note with it: cited from earlier work.
In test [3] the target is STAT3 (Homo sapiens, UniProt P40763). The settings on record: cited from earlier work.
Sequence of STAT3 (P40763 whole entry): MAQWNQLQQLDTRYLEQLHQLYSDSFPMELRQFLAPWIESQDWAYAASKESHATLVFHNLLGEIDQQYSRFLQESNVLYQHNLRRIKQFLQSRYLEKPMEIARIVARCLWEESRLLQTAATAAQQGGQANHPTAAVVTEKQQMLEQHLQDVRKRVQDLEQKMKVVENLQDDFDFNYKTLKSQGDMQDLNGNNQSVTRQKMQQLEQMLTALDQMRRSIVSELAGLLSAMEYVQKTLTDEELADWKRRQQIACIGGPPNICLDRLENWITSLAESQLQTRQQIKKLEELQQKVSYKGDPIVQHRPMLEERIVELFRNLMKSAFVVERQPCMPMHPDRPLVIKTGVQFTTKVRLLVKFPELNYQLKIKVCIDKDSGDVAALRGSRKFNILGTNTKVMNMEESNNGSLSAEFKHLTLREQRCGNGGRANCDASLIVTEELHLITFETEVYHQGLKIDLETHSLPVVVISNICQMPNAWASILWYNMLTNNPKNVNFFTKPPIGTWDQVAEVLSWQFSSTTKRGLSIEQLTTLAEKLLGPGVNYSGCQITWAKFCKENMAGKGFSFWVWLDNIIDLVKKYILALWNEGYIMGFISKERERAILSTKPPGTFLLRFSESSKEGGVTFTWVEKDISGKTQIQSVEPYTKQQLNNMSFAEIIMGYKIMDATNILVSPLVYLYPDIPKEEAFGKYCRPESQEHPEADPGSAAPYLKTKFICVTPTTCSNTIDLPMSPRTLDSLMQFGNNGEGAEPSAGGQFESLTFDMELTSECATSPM

Consider IL-13: Human IL-13 Recombinant Protein, for which the “induction of Vcam1” value in test [1] is 30 fold.

In the case of `C=CC(=O)Nc1cccc(Sc2nc(Nc3ccc(N4CCN(C)CC4)cc3)ncc2Cl)c1` [WZ8040], the “inhibition of ERBB2 phosphorylation” value in test [2] is “does not inhibit”.

What is called IC50 is the concentration needed to halve the response being measured. Consider `O=[N+]([O-])c1ccc2c(c1)S(=O)(=O)C=C2` [Stattic], for which the 50% inhibitory concentration (IC50) in test [3] (cell-free assays, read-out: IC50 of STAT3 activation and nuclear translocation) was 5.1 µM. Also, in test [3], the “selectivity over STAT1” value is reported as “highly selectivity over STAT1”.
